Earlier results as cited in patent US6852743B1, “Preventives for the recurrence of cerebrovascular failure and agents for ameliorating troubles following cerebrovascular failure and inhibiting progress thereof” (Takeda Pharmaceutical Company Limited, priority 1999, dated 2005).

Tests used:
insulin sensitivity = conditions: clinically; Iimura O. et al., Am J Hypertens 8, 353-357, 1995
[1] = test system: automatic regulation of cerebral blood flow; conditions: literature report, Vraamark T et al., J Hypertens 13:755-761, 1995

Structure (SMILES) | insulin sensitivity (insulin sensitivity) | effect on the lower limit of automatic regulation [1]
CCOc1nc2cccc(C(=O)OC(C)OC(=O)OC3CCCCC3)c2n1Cc1ccc(-c2ccccc2-c2nnn[nH]2)cc1 (centres unmarked) [Candesartan cilexetil, 1-(cyclohexyloxycarbonyloxy)ethyl 2-ethoxy-1-[[2′-(1H-tetrazole-5-yl)biphenyl-4-yl]methyl]benzimidazole-7-carboxylate] | improve insulin sensitivity clinically | –
CCOc1nc2cccc(C(=O)O)c2n1Cc1ccc(-c2ccccc2-c2nnn[nH]2)cc1 [Candesartan, 2-ethoxy-1-[[2′-(1H-tetrazole-5-yl)biphenyl-4-yl]methyl]benzimidazol-7-carboxylic acid] | – | can deviate the lower limit of automatic regulation leftward (toward lower blood pressure level)
